Five molecules from patent US10214542B2, “Modified macrocyclic compounds” (BAYER PHARMA AKTIENGESELLSCHAFT, priority 2015, dated 2019) can be followed below.

pIC50: −log10 of the molar value.

The target in one assay is T1, CDK9/CycT1 (Homo sapiens, UniProt P50750).
T1 construct: Recombinant full-length His-tagged human CDK9 and CycT1; His; purchased Invitrogen PV4131; host or cells: insect cells
Put plainly: CDK9/CycT1 kinase assay (TR-FRET, Method 1a). The conditions noted are these: 10 μM ATP; for pIC50: Method 1a; for Selectivity CDK9 over CDK2: IC50 (CDK2)/IC50 (CDK9): Methods 1a and 2a. It counts as biochemical. The text has this:
1a. CDK9/CycT1 Kinase Assay:
CDK9/CycT1-inhibitory activity of compounds of the present invention was quantified employing the CDK9/CycT1 TR-FRET assay as described in the following paragraphs:
Recombinant full-length His-tagged human CDK9 and CycT1, expressed in insect cells and purified by Ni-NTA affinity chromatography, were purchased from Invitrogen (Cat. No PV4131). As substrate for the kinase reaction biotinylated peptide biotin-Ttds-YISPLKSPYKISEG (C-terminus in amid form) was used which can be purchased e.g. from the company JERINI Peptide Technologies (Berlin, Germany).
For the assay 50 nl of a 100 fold concentrated solution of the test compound in DMSO was pipetted into a black low volume 384 well microtiter plate (Greiner Bio-One, Frickenhausen, Germany), 2 μl of a solution of CDK9/CycT1 in aqueous assay buffer [50 mM Tris/HCl pH 8.0, 10 mM MgCl2, 1.0 mM dithiothreitol, 0.1 mM sodium ortho-vanadate, 0.01% (v/v) Nonidet-P40 (Sigma)] were added and the mixture was incubated for 15 min at 22° C. to allow pre-binding of the test compounds to the enzyme before the start of the kinase reaction. […] The concentration of CDK9/CycT1 was adjusted depending of the activity of the enzyme lot and was chosen appropriate to have the assay in the linear range, typical concentrations were in the range of 1 μg/mL. The reaction was stopped by the addition of 5 μl of a solution of TR-FRET detection reagents (0.2 μM streptavidine-XL665 [Cisbio Bioassays, Codolet, France] and 1 nM anti-RB(pSer807/pSer811)-antibody from BD Pharmingen [#558389] and 1.2 nM LANCE EU-W1024 labeled anti-mouse IgG antibody [Perkin-Elmer, product no. AD0077]) in an aqueous EDTA-solution (100 mM EDTA, 0.2% (w/v) bovine serum albumin in 100 mM HEPES pH 7.5).
The resulting mixture was incubated 1 h at 22° C. to allow the formation of complex between the phosphorylated biotinylated peptide and the detection reagents. Subsequently the amount of phosphorylated substrate was evaluated by measurement of the resonance energy transfer from the Eu-chelate to the streptavidine-XL. Therefore, the fluorescence emissions at 620 nm and 665 nm after excitation at 350 nm was measured in a HTRF reader, e.g. a Rubystar (BMG Labtechnologies, Offenburg, Germany) or a Viewlux (Perkin-Elmer). The ratio of the emissions at 665 nm and at […] was taken as the measure for the amount of phosphorylated substrate. The data were normalised (enzyme reaction without inhibitor=0% inhibition, all other assay components but no enzym=100% inhibition).
(In general: TR-FRET usually uses a lanthanide donor and a delayed reading to cut background.)

In the next assay the test system is HeLa cells. The assay can be described thus: Proliferation assay, crystal violet (Method 3). The conditions noted are these: Homo sapiens, 96 h, 4 days, read-out: Inhibition of HeLa cell proliferation IC50. It counts as cell-based, human. How it is done:
(§1) Cultivated tumour cells (HeLa, human cervical tumour cells, ATCC CCL-2; NCI-H460, human non-small cell lung carcinoma cells, ATCC HTB-177; DU 145, hormone-independent human prostate carcinoma cells, ATCC HTB-81; HeLa-MaTu-ADR, multidrug-resistant human cervical carcinoma cells, EPO-GmbH Berlin; Caco-2, human colorectal carcinoma cells, ATCC HTB-37; B16F10, mouse melanoma cells, ATCC CRL-6475) were plated at a density of 5,000 cells/well (DU145, HeLa-MaTu-ADR), 3,000 cells/well (NCI-H460, HeLa), 1,500 cells/well (Caco-2), or 1,000 cells/well (B16F10) in a 96-well multititer plate in 200 μL of their respective growth medium supplemented 10% fetal calf serum. After 24 hours, the cells of one plate (zero-point plate) were stained with crystal violet (see below), while the medium of the other plates was supplemented with the test substances in various concentrations (0 μM, as well as in the range of 0.0001-10 μM; the final concentration of the solvent dimethyl sulfoxide was adjusted to 0.1%) using a Hewlett-Packard HP D300 Digital Dispenser. The cells were incubated for 4 days in the presence of test substances. Cell proliferation was determined by staining the cells with crystal violet: the cells were fixed by adding 20 μl/measuring point of an 11% glutaric aldehyde solution for 15 minutes at room temperature. After three washing cycles of the fixed cells with water, the plates were dried at room temperature. The cells were stained by adding 100 μl/measuring point of a 0.1% crystal violet solution (pH 3.0). After three washing cycles of the stained cells with water, the plates were dried at room temperature. The dye was dissolved by adding 100 μl/measuring point of a 10% acetic acid solution. The extinction was determined by photometry at a wavelength of 595 nm. The change of cell number, in percent, was calculated by normalization of the measured values to the extinction values of the zero-point plate (=0%) and the extinction of the untreated (0 μm) cells (=100%). The IC50 values (inhibitory concentration at 50% of maximal effect) were determined by means of a 4 parameter fit.

In another assay the test system is B16F10 cells. The assay can be described thus: Proliferation assay, crystal violet (Method 3). The class given is cell-based. The conditions noted are these: Mus musculus, B16-F10, 96 h; B16F10, 4 days; read-out: Inhibition of B16F10 cell proliferation IC50. How it is done:
as §1

The test system of another assay is Caco-2 cells. The assay can be described thus: Proliferation assay, crystal violet (Method 3). It counts as cell-based. The conditions noted are these: Homo sapiens, 96 h; Caco-2, 4 days; read-out: Inhibition of Caco-2 cell proliferation IC50. How it is done: as §1
The test system of the next assay is DU145 cells. The assay can be described thus: Proliferation assay, crystal violet (Method 3). It counts as cell-based. The conditions noted are these: Homo sapiens, DU-145, 96 h; DU145, 4 days; read-out: Inhibition of DU145 cell proliferation IC50. The method, then: as §1
The next assay relates to HeLa-MaTu-ADR cells. The assay can be described thus: Proliferation assay, crystal violet (Method 3). The conditions noted are these: Homo sapiens, 96 h, 4 days, read-out: Inhibition of HeLa-MaTu-ADR cell proliferation IC50. It counts as cell-based. The method, then: as §1
The next assay relates to NCI-H460 cells. Put plainly: Proliferation assay, crystal violet (Method 3). The class given is cell-based. The conditions noted are these: Homo sapiens, 96 h; NCI-H460, 4 days; read-out: Inhibition of NCI-H460 cell proliferation IC50. The method, then:
as §1

T1 sequence (P50750 whole entry): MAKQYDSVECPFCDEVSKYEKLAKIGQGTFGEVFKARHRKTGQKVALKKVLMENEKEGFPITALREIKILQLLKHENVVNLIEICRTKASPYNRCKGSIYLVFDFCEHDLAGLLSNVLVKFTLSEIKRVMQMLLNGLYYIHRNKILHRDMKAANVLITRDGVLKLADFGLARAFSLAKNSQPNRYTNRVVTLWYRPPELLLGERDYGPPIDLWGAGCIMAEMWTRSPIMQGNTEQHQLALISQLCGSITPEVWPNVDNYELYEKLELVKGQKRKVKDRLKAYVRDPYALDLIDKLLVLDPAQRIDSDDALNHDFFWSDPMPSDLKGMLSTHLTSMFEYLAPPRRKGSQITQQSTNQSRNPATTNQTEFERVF
T1 sequence (O60563 whole entry partner): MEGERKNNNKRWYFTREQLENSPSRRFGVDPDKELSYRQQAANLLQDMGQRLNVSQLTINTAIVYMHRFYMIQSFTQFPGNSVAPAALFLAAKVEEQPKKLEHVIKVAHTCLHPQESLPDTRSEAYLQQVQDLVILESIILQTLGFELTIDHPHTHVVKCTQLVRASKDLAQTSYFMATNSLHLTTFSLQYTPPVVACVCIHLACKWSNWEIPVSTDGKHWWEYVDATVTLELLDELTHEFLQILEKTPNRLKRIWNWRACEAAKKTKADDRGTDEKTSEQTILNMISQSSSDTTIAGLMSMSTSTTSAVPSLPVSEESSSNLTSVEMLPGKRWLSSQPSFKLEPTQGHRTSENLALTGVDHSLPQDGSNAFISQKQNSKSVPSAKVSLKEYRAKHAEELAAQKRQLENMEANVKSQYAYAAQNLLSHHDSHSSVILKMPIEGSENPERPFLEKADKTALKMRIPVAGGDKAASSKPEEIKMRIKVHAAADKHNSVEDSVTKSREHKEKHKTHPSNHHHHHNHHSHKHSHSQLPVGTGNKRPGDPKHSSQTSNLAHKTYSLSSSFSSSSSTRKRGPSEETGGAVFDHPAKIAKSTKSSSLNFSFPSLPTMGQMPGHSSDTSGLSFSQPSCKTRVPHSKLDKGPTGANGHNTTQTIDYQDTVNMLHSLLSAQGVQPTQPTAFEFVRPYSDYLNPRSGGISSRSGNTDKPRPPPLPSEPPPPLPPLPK

On to `CS(=N)(=O)Cc1cc2nc(c1)OCCCCCc1cc(F)ccc1-c1cc(ncc1F)N2` (racemic) [Example 20, (rac)-2,19-difluoro-9-[(S-methylsulfonimidoyl)methyl]-14,15,16,17-tetrahydro-6H,13H-7,11-(azeno)-5,1-(metheno)-12,4,6-benzoxadiazacyclononadecine], for which the pIC50 at CDK9/CycT1 was 8.26; in the assay on HeLa cells, 6.39; in the assay on B16F10 cells, 6.06; with Caco-2 cells it was 6.46; in the assay with DU145 cells, 6.46; in the assay on HeLa-MaTu-ADR cells, 6.44. The pIC50 in the assay with NCI-H460 cells was 6.24. Also, the “Selectivity CDK9 over CDK2: IC50 (CDK2)/IC50 (CDK9)” value (from here on “Selectivity CDK9 over CDK2: IC50”) on CDK9/CycT1 is listed as 29.5.

Consider `CSCc1cc2nc(c1)Nc1cc(c(F)cn1)-c1ccc(F)cc1OCCCN2` [Example 1, 15,19-Difluoro-8-[(methylsulfanyl)methyl]-2,3,4,5-tetrahydro-11H-10,6-(azeno)-12,16-(metheno)-1,5,11,13-benzoxatriazacyclooctadecine], for which the pIC50 against CDK9/CycT1 is 8.54; with HeLa cells, 7.55; in the assay on B16F10 cells, 7.29; in the assay with Caco-2 cells, 7.44; with DU145 cells, 7.52; in the assay on HeLa-MaTu-ADR cells it was 7.55. In addition, the pIC50 with NCI-H460 cells is 7.51. The “Selectivity CDK9 over CDK2: IC50” value on CDK9/CycT1 turned out to be 28.1.

Take `CSCc1cc2nc(c1)OCCCCc1cc(F)ccc1-c1cc(ncc1F)N2` [Example 4, 2,18-Difluoro-9-[(methylsulfanyl)methyl]-13,14,15,16-tetrahydro-6H-7,11-(azeno)-5,1-(metheno)-12,4,6-benzoxadiazacyclooctadecine]: the pIC50 against CDK9/CycT1 was 7.44; in the assay with HeLa cells, 5.03; in the assay on B16F10 cells, less than 5.00; in the assay with Caco-2 cells it was 5.59; with DU145 cells, less than 5.00; with HeLa-MaTu-ADR cells, 5.25. The pIC50 with NCI-H460 cells was 5.32. Also, the “Selectivity CDK9 over CDK2: IC50” value at CDK9/CycT1 is on record as more than 556.

`CSCc1cc2nc(c1F)N(C)CCCCOc1cc(F)ccc1-c1cc(ncc1F)N2` [Example 12, 8,16,20-trifluoro-6-methyl-9-[(methylsulfanyl)methyl]-3,4,5,6-tetrahydro-2H,12H-11,7-(azeno)-13,17-(metheno)-1,6,12,14-benzoxatriazacyclononadecine]: the pIC50 against CDK9/CycT1 is 7.60; with HeLa cells it was 6.07; in the assay on B16F10 cells, 6.00; in the assay with Caco-2 cells, 6.36; in the assay with DU145 cells, 6.07; with HeLa-MaTu-ADR cells, 6.06. Moreover, the pIC50 with NCI-H460 cells was 6.23. Also, the “Selectivity CDK9 over CDK2: IC50” value at CDK9/CycT1 worked out at 1.1.

Consider `CSCc1cc2nc(c1)OCCCCCc1cc(F)ccc1-c1cc(ncc1F)N2` [Example 18, 2,19-difluoro-9-[(methylsulfanyl)methyl]-14,15,16,17-tetrahydro-6H,13H-7,11-(azeno)-5,1-(metheno)-12,4,6-benzoxadiazacyclononadecine], for which the pIC50 against CDK9/CycT1 was 7.00; in the assay on HeLa cells, less than 5.00; in the assay on B16F10 cells it was less than 5.00; with Caco-2 cells it was 5.33; with DU145 cells, less than 5.00; with HeLa-MaTu-ADR cells it was less than 5.00. Further, the pIC50 in the assay with NCI-H460 cells is less than 5.00. In addition, the “Selectivity CDK9 over CDK2: IC50” value at CDK9/CycT1 was 25.9.
